Experimental data from ChEMBL document CHEMBL1201862, “PubChem BioAssay data set” (2004).
The source made the active and inactive calls.

What was measured:
[1] = inhibitors of Vif binding to APOBEC3G peptide, primary screen, biochemical, TR-FRET, GST-Vif 1-94, biotin-A3G peptide, dose response retest (AID 1117319); format: functional;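 further: TR-FRET signal of purified GST-Vif binding a biotinylated A3G peptide; inhibitors lower the FRET signal by blocking Vif and A3G binding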
[2] = Luminescence Cell-Based Dose Response to Identify Activators of Luciferase Translation or Activity in H4-C Neuroglioblastoma Cells. [Related pubchem assays: 1829 (Project Summary), 1814 (Primary HTS)]; format: functional
[3] = Luminescence Cell-Based Dose Retest to Confirm Inhibitors of Cancer Stem Cells. [Related pubchem assays (depositor defined):AID2717, AID2721]; format: functional; details: Homo sapiens
[4] = Luminescence Cell-Based Dose Confirmation to Identify Activators of 5'UTR Stem-Loop Driven Alpha-Synuclein mRNA Translation in H4 Neuroglioblastoma Cells. [Related pubchem assays: 1829 (Project Summary), 1814 (Primary HTS)]; format: functional
[5] = Luminescence Cell-Based Dose Response to Identify Activators of 5'UTR Stem-Loop Driven Prion Protein mRNA Translation in H4-C Neuroglioblastoma Cells. [Related pubchem assays: 1829 (Project Summary), 1814 (Primary HTS)]; format: functional
[6] = tested on: H4; assay: Luminescence Cell-Based Dose Response HTS to Identify Activators of 5'UTR Stem-Loop Driven Prion Protein mRNA Translation in H4 Neuroglioblastoma Cells. [Related pubchem assays: 1829 (Project Summary), 1814 (Primary HTS)]; format: functional; details: Homo sapiens
[7] = Luminescence Cell-Based Dose Response HTS to Identify Activators of Luciferase Translation or Activity in H4 […] Cells. [Related pubchem assays: 1829 (Project Summary), 1814 (Primary HTS)]; format: functional
[8] = target: Cytochrome P450 2D6 (Homo sapiens, UniProt P10635);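 further: CYP2D6 member of a cytochrome P450 panel assay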
[9] = target: Large T antigen (Simian virus 40, UniProt P03070); format: functional, Betapolyomavirus macacae;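 further: Confirmatory-stage PubChem screen for compounds that inhibit SV40 T antigen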
[10] = target: Glutathione-S-transferase (Schistosoma japonicum, UniProt Q26513); assay: biotin-GST/anti-GST TR-FRET signal inhibitors, dose response, artefact control for Vif-APOBEC3G degradation inhibitor project, biochemical (AID 1117362); format: functional
[11] = cytotoxicity toward HT-29 cells – cell-based, CellTiter-Glo luminescence, IC50, dose response (AID 1117330); format: functional
[12] = cytotoxicity toward Colo320 cells – cell-based, CellTiter-Glo luminescence, IC50, dose response (AID 1117334); format: functional; details: COLO 320
[13] = SNU-C1 cell viability reduction, dose response, CellTiter-Glo luminescence (AID 1117323); format: functional, cell-based
[14] = HCT116 cell viability decrease, GSK3B pretreatment – CellTiter-Glo, IC50, dose response (AID 1117339); format: functional; details: HCT-116
[15] = RKO cell viability reduction, dose response, CellTiter-Glo luminescence (AID 1117322); format: functional
[16] = Concentration-dependent survival of SW480 colon cancer line, luminescence detection with CellTiter-Glo, half-maximal inhibitory concentration (AID 1117338); format: functional
[17] = cytotoxicity toward HCT116 cells – cell-based, CellTiter-Glo luminescence, IC50, dose response (AID 1117332); format: functional; details: HCT-116
[18] = CellTiter-Glo luminescent dose response of DLD-1 viability loss (AID 1117352); format: functional
[19] = inhibitors of non-replicating M. tuberculosis, dose response, luciferase, dry powder (AID 651620); format: functional
[20] = inhibitors of non-replicating M. tuberculosis, dose response, luciferase, dry powder (AID 651619); format: functional
[21] = target: Voltage-dependent T-type calcium channel subunit alpha-1H (Homo sapiens, UniProt O95180); format: functional;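 further: channel activity triggered by adding a high calcium stimulation buffer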
[22] = target: Ephrin type-A receptor 4 (Mus musculus, UniProt Q03137); assay: inhibitors of EphA4 binding to KYL peptide, primary screen, biochemical, colorimetric, mouse EphA4 (AID 689); format: functional
Chain of Ephrin type-A receptor 4 (Q03137 whole entry): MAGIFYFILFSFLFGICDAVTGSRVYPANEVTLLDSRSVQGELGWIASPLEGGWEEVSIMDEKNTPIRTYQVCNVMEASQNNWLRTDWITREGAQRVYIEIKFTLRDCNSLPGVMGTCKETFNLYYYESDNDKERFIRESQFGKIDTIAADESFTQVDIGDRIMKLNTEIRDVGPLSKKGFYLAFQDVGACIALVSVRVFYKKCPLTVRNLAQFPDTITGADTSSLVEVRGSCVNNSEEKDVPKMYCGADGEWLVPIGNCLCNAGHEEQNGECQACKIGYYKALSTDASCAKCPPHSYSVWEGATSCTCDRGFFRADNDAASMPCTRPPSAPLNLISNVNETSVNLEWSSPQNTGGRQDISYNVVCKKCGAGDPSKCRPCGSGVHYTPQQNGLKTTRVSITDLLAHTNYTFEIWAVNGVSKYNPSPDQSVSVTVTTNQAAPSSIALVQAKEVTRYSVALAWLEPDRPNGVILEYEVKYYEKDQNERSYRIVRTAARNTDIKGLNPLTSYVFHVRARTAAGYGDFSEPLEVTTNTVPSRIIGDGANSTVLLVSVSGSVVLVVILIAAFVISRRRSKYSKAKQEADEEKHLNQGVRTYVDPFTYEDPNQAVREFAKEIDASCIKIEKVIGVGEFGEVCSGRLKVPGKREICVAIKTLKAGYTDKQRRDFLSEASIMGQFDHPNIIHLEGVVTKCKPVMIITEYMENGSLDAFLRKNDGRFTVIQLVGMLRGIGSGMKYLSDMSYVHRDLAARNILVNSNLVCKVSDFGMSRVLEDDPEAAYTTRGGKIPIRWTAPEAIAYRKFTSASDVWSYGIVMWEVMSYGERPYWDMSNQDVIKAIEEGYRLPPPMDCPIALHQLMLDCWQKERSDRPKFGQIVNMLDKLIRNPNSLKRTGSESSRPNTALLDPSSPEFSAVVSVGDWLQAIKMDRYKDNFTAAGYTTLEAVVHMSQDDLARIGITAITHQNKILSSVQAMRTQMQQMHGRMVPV

Chain of Voltage-dependent T-type calcium channel subunit alpha-1H (O95180 whole entry): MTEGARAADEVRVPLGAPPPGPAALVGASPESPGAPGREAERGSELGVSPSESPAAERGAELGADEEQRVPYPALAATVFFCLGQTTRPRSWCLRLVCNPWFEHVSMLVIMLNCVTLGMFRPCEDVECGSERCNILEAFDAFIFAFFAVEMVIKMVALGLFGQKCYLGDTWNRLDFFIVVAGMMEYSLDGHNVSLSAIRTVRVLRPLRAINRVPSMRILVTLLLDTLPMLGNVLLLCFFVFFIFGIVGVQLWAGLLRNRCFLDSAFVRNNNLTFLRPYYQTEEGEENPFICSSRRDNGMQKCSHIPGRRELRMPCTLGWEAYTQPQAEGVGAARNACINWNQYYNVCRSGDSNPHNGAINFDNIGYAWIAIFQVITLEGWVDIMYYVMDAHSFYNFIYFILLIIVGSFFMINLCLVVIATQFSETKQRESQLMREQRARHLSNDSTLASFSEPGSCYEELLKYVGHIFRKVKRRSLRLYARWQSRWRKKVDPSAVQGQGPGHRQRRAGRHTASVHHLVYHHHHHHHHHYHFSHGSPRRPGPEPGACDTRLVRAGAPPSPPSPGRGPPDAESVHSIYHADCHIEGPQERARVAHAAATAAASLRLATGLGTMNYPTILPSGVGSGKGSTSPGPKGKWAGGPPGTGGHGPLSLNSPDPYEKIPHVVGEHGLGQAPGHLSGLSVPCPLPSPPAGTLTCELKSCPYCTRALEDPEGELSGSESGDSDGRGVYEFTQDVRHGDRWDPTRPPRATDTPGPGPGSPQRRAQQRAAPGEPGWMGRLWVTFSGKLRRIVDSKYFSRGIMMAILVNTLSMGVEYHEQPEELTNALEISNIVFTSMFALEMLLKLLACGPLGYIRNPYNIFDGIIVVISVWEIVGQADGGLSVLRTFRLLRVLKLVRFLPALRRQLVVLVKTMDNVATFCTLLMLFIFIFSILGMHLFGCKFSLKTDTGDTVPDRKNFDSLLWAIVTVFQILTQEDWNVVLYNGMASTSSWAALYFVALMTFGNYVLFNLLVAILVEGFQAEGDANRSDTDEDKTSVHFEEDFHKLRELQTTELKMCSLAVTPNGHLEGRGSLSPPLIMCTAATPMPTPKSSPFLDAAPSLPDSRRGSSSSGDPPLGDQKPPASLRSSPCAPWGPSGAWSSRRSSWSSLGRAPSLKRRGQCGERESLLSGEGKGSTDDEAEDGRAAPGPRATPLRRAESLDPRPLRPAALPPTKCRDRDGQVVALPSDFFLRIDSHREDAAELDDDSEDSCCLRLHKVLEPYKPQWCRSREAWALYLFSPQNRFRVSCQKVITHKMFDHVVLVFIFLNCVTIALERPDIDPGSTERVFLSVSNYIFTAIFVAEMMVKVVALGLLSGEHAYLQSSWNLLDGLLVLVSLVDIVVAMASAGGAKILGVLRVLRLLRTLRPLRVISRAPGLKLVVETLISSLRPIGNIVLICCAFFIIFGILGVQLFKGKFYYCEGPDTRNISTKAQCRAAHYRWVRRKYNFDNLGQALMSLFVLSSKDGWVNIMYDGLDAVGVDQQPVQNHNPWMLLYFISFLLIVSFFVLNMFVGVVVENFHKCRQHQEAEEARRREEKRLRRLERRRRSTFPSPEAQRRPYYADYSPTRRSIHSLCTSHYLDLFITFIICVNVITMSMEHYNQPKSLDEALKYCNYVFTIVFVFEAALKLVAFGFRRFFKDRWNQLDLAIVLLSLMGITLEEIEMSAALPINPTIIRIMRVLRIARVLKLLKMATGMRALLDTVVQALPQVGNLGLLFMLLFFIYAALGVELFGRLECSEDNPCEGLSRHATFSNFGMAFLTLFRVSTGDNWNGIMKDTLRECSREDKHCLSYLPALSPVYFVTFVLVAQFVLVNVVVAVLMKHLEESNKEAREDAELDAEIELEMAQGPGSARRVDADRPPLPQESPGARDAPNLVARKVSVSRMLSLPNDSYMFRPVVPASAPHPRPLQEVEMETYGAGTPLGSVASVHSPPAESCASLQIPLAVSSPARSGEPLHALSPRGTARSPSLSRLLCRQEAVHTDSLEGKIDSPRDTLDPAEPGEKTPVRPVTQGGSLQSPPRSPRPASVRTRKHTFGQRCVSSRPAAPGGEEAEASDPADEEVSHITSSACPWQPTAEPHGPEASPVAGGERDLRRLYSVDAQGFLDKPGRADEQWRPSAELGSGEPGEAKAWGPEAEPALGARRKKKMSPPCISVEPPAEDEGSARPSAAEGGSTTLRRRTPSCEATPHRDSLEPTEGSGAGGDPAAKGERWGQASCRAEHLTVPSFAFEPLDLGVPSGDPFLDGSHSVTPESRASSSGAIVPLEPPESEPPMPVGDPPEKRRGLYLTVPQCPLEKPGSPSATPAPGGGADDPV
Chain of Cytochrome P450 2D6 (P10635 whole entry): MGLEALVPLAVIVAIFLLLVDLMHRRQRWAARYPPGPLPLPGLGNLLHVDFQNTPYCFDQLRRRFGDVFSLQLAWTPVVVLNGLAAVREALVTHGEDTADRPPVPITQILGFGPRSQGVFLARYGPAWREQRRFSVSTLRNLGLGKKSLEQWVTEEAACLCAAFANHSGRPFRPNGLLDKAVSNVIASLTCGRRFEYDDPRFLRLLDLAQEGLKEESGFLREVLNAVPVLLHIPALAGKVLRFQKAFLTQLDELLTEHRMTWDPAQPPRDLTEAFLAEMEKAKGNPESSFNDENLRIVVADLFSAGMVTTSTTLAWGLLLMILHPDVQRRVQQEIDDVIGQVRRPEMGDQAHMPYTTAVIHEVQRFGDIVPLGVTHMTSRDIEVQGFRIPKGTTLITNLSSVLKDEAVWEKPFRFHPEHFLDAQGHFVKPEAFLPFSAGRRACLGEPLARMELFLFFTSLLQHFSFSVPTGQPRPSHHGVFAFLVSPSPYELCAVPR
Chain of Glutathione-S-transferase (Q26513 whole entry): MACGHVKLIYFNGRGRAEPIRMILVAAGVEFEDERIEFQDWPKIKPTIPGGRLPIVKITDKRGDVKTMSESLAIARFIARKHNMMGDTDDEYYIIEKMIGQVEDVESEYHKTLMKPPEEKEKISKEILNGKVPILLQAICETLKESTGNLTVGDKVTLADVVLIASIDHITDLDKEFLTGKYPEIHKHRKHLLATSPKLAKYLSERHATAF
Chain of Large T antigen (P03070 whole entry): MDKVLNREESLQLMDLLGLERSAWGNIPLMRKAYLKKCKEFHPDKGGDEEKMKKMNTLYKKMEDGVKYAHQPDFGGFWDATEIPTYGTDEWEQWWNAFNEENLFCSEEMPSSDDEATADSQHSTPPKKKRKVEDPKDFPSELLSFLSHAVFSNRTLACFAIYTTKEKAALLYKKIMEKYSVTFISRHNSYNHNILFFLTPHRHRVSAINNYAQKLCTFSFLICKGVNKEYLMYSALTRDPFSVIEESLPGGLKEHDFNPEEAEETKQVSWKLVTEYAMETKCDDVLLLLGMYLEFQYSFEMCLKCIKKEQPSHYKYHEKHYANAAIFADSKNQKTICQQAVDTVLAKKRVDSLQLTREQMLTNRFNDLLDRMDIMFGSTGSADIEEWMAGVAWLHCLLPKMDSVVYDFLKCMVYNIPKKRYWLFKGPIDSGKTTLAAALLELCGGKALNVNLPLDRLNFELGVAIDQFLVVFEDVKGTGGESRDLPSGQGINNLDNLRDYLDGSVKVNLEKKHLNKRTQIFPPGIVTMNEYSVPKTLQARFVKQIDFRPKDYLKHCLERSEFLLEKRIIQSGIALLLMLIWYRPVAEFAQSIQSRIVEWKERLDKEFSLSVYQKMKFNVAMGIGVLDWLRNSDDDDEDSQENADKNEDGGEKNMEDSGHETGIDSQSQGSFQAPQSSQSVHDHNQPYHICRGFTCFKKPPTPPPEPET

SMILES: CC(C(=O)N1CCOCC1)(c1ccccc1)c1ccccc1
- IC50 [1]: > 100 µM (active)

SMILES: Cc1sc(NC(=O)C2CCCCC2)c(C#N)c1-c1ccccc1
- EC50 [2]: 0.375 µM (active)
- AC50 [3]: 3.43 µM (active)
- EC50 [4]: 0.174 µM (active)
- EC50 [5]: 0.689 µM (active)
- EC50 [6]: 7.76 µM (active)
- EC50 [7]: < 0.1 µM (active)
- AC50 [8]: 7.08 µM (inconclusive)

SMILES: Nc1ccc(-c2nc3cc(N)ccc3n2CCO)cc1
- IC50 [9]: 41.7 µM (active)
- IC50 [10]: > 100 µM (active)

SMILES: O=[N+]([O-])c1cccc(S(=O)(=O)NCCNS(=O)(=O)c2cccc([N+](=O)[O-])c2)c1 [DINSED]
- IC50 [11]: > 20 µM (inactive)
- IC50 [12]: > 20 µM (inactive)
- IC50 [13]: > 20 µM (inactive)
- IC50 [14]: > 20 µM (inactive)
- IC50 [15]: > 20 µM (inactive)
- IC50 [16]: > 20 µM (inactive)
- IC50 [17]: > 20 µM (inactive)
- IC50 [18]: > 20 µM (inactive)

SMILES: Clc1ccc(-c2nnc(SCc3cn(Cc4ccccc4)nn3)o2)cc1
- IC90 [19]: 1 µM (active)
- IC90 ([19]; Mycobacterium tuberculosis): 2 µM (active)
- IC90 [20]: 1 µM (active)
- IC90 ([20]; Mycobacterium tuberculosis): 2 µM (active)

SMILES: CCN(CC)C(=O)c1ccc(CS(=O)(=O)c2ccc(OC)cc2)o1
- IC50 [1]: > 100 µM (active)

SMILES: COc1ccc(C(c2nnnn2Cc2cccs2)N2CCN(c3ccccc3F)CC2)cc1 (stereo not given)
- EC50 [21]: 18 µM (active)
- IC50 [22]: > 100 µM (not active)
